Measured values reported in paper PMC10503797, “Allosteric modulator potentiates β2AR agonist–promoted bronchoprotection in asthma models” (The Journal of Clinical Investigation, 2023).
Several values for one entry are separate records, joined by “and”; a condition that tells them apart may be missing. Equal entries are not always repeated.

Legend:
[1] = molecular target: T1, guinea pig β2AR (Cavia porcellus, UniProt Q8K4Z4); assay: GloSensor cAMP, constitutive activity of overexpressed guinea pig β2AR
T1 sequence (Q8K4Z4 whole entry): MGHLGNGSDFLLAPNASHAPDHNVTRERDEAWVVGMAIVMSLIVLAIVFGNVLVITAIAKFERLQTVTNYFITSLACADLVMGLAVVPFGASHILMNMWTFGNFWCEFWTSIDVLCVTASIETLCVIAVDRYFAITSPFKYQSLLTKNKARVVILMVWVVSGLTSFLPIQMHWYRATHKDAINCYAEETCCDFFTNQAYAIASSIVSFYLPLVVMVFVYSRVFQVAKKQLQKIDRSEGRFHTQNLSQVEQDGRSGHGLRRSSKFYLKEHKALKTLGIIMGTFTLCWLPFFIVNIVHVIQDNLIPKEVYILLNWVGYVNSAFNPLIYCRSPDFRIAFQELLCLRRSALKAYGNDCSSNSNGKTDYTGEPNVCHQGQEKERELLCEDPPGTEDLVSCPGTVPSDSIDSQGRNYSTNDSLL

[2] = molecular target: T1, guinea pig β2AR; assay: 125I-CYP radioligand competition binding, guinea pig β2AR

For `COc1ccc(Sc2ccc(S(=O)(=O)N(C)C(C)C)cc2C(=O)N[C@H](CC(N)=O)Cc2ccc(C(C)(C)C)cc2)cc1` [Cmpd-6], the “cAMP, constitutive activity of overexpressed β2AR (Figure 4C)” value ([1]; Species of β2AR: Guinea pig) was 48.9693 and 55.2023 and 45.6589 and 55.6328, the “PAM activity in cAMP production induced by constitutive activity of overexpressed guinea pig β2AR” value ([1]; no orthosteric agonist, 20 minutes) was “equivalent to what we observed with the overexpressed human receptor” and the “125I-CYP binding, ISO competition curve (Figure 4B)” value (from here on “125I-CYP binding … (Figure 4B)”) ([2]; Cmpd-6 [1 uM], Log [ISO] (M) -4.49485) was 1.389 and 1.151 and 1.419 and 1.486 and 1.375. For the same compound, the “125I-CYP binding … (Figure 4B)” value ([2]; Cmpd-6 [1 uM], Log [ISO] (M) -5.69897) was 11.9867 and 9.239 and 16.2618 and 13.198 and 14.4523, the “125I-CYP binding … (Figure 4B)” value ([2]; Cmpd-6 [1 uM], Log [ISO] (M) -6.90309) was 60.3981 and 44.4601 and 52.8751 and 61.5704 and 63.6634 and the “125I-CYP binding … (Figure 4B)” value ([2]; Cmpd-6 [1 uM], Log [ISO] (M) -7.50515) was 85.4929 and 72.4739 and 91.4188 and 87.166 and 89.8825. For the same compound, the “125I-CYP binding … (Figure 4B)” value ([2]; Cmpd-6 [1 uM], Log [ISO] (M) -8.70927) was 98.0858 and 100.299 and 96.4593 and 97.8108 and 99.3392, the “125I-CYP binding … (Figure 4B)” value ([2]; Cmpd-6 [1 uM], Log [ISO] (M) -9.31133) was 102.219 and 97.3579 and 98.2032 and 100.895 and 101.354 and the “125I-CYP binding … (Figure 4B)” value ([2]; Cmpd-6 [1 uM], Log [ISO] (M) -9.91339) was 101.18 and 98.3743 and 98.3138 and 101.016 and 101.111. For the same compound, the “125I-CYP binding … (Figure 4B)” value ([2]; Cmpd-6 [1 uM], Log [ISO] (M) -11 (DMSO)) was 99.0003 and 102.579 and 98.6421 and 100.222 and 97.6049, the “125I-CYP binding … (Figure 4B)” value ([2]; Cmpd-6 [5 uM], Log [ISO] (M) -7.50515) was 44.1147 and 80.7404 and 64.2013 and 72.7308 and 72.5102 and the “125I-CYP binding … (Figure 4B)” value ([2]; Cmpd-6 [5 uM], Log [ISO] (M) -8.70927) was 91.2908 and 98.8095 and 98.5241 and 100.522 and 98.3672. The “125I-CYP binding … (Figure 4B)” value ([2]; Cmpd-6 [5 uM], Log [ISO] (M) -9.31133) was 97.2169 and 98.4924 and 100.303 and 100.814 and 103.36, the “125I-CYP binding … (Figure 4B)” value ([2]; Cmpd-6 [5 uM], Log [ISO] (M) -9.91339) was 98.5199 and 97.6422 and 100.698 and 101.104 and 99.2184 and the “125I-CYP binding … (Figure 4B)” value ([2]; Cmpd-6 [5 uM], Log [ISO] (M) -11 (DMSO)) was 103.509 and 97.6444 and 99.5117 and 98.3736 and 96.5817. For the same compound, the “125I-CYP binding, Alb competition curve (Figure 4E)” value (shortened to “125I-CYP binding … (Figure 4E)”) ([2]; Cmpd-6 [25 uM], Log [Alb] (M) -4.49485) was 2.733 and 2.385 and 4.038 and 2.554, the “125I-CYP binding … (Figure 4E)” value ([2]; Cmpd-6 [25 uM], Log [Alb] (M) -5.09691) was 4.618 and 4.73 and 8.896 and 4.926 and the “125I-CYP binding … (Figure 4E)” value ([2]; Cmpd-6 [25 uM], Log [Alb] (M) -6.30103) was 28.5337 and 34.114 and 50.4761 and 33.3615. For the same compound, the “125I-CYP binding … (Figure 4E)” value ([2]; Cmpd-6 [25 uM], Log [Alb] (M) -6.90309) was 59.5755 and 62.9432 and 76.3108 and 62.8869, the “125I-CYP binding … (Figure 4E)” value ([2]; Cmpd-6 [25 uM], Log [Alb] (M) -7.50515) was 81.8149 and 87.2785 and 93.3109 and 87.5413 and the “125I-CYP binding … (Figure 4E)” value ([2]; Cmpd-6 [25 uM], Log [Alb] (M) -8.10721) was 96.1096 and 95.2866 and 96.5894 and 97.0774. The “125I-CYP binding … (Figure 4E)” value ([2]; Cmpd-6 [25 uM], Log [Alb] (M) -8.70927) was 98.1238 and 100.926 and 100.115 and 99.527, the “125I-CYP binding … (Figure 4E)” value ([2]; Cmpd-6 [25 uM], Log [Alb] (M) -9.31133) was 102.128 and 99.4951 and 103.592 and 101.926 and the “125I-CYP binding … (Figure 4E)” value ([2]; Cmpd-6 [25 uM], Log [Alb] (M) -9.91339) was 98.9354 and 102.792 and 101.444 and 100.327. The “125I-CYP binding … (Figure 4E)” value ([2]; Cmpd-6 [25 uM], Log [Alb] (M) -11 (DMSO)) was 100.906 and 97.7704 and 98.4446 and 97.5175, the “125I-CYP binding, FEN competition curve (Figure 4D)” value (“125I-CYP binding … (Figure 4D)” below) ([2]; Cmpd-6 [25 uM], Log [FEN] (M) -4.49485) was 1.409 and 1.866 and 2.061 and 1.201 and the “125I-CYP binding … (Figure 4D)” value ([2]; Cmpd-6 [25 uM], Log [FEN] (M) -6.90309) was 30.825 and 36.7624 and 55.798 and 36.3648. The “125I-CYP binding … (Figure 4D)” value ([2]; Cmpd-6 [25 uM], Log [FEN] (M) -7.50515) was 56.6182 and 66.5595 and 80.6389 and 63.8444, the “125I-CYP binding … (Figure 4D)” value ([2]; Cmpd-6 [25 uM], Log [FEN] (M) -8.10721) was 85.2358 and 86.7408 and 95.8272 and 89.5788 and the “125I-CYP binding … (Figure 4D)” value ([2]; Cmpd-6 [25 uM], Log [FEN] (M) -8.70927) was 93.1548 and 97.3369 and 100.273 and 95.4081. For the same compound, the “125I-CYP binding … (Figure 4D)” value ([2]; Cmpd-6 [25 uM], Log [FEN] (M) -9.31133) was 99.631 and 100.281 and 99.1957 and 101.634, the “125I-CYP binding … (Figure 4D)” value ([2]; Cmpd-6 [25 uM], Log [FEN] (M) -9.91339) was 99.9681 and 102.324 and 101.127 and 101.353 and the “125I-CYP binding … (Figure 4D)” value ([2]; Cmpd-6 [25 uM], Log [FEN] (M) -11 (DMSO)) was 101.956 and 98.6366 and 99.5621 and 98.3857. For the same compound, the “125I-CYP binding … (Figure 4B)” value ([2]; Cmpd-6 [25 uM], Log [ISO] (M) -5.09691) was 1.411 and 1.274 and 2.38 and 2.249 and 1.1946, the “125I-CYP binding … (Figure 4B)” value ([2]; Cmpd-6 [25 uM], Log [ISO] (M) -6.90309) was 12.3266 and 14.2939 and 23.2433 and 22.4081 and 20.0289 and the “125I-CYP binding … (Figure 4B)” value ([2]; Cmpd-6 [25 uM], Log [ISO] (M) -7.50515) was 28.0286 and 51.334 and 48.5832 and 48.3069 and 46.746. The “125I-CYP binding … (Figure 4B)” value ([2]; Cmpd-6 [25 uM], Log [ISO] (M) -8.70927) was 84.2583 and 93.8004 and 93.7052 and 91.4625 and 91.5747, the “125I-CYP binding … (Figure 4B)” value ([2]; Cmpd-6 [25 uM], Log [ISO] (M) -9.31133) was 94.8589 and 99.2775 and 101.069 and 99.6071 and 99.1245 and the “125I-CYP binding … (Figure 4B)” value ([2]; Cmpd-6 [25 uM], Log [ISO] (M) -9.91339) was 97.1607 and 99.3939 and 99.6796 and 99.8936 and 100.155. For the same compound, the “125I-CYP binding … (Figure 4B)” value ([2]; Cmpd-6 [25 uM], Log [ISO] (M) -11 (DMSO)) was 103.398 and 98.8874 and 98.4421 and 101.926 and 100.783 and the “125I-CYP binding, Salm competition curve (Figure 4F)” value ([2]; Cmpd-6 [25 uM], Log [Salm] (M) -5.09691) was 4.291 and 4.483 and 7.953 and 4.185.
